Reference: publication PMC3310894 (Bioorganic & medicinal chemistry, 2012)

How the values were obtained:
[1] = mice; 35 mg/kg of 11a, 10 mg/kg of 8
[2] = tested on: COLO-205 tumor xenografts; assay: COLO-205 human metastatic colon mouse xenograft; type: in vivo; details: athymic mice, 11a 35 mg/kg, 8 10 mg/kg, three times weekly, IP
VEGFR-1 = VEGFR-1 (Homo sapiens, UniProt P17948); details: for VEGFR-1 inhibition, fold less active than the standard 21: relative to standard 21
VEGFR-2 = VEGFR-2 (Homo sapiens, UniProt P35968); details: for VEGFR-2 inhibition, fold less active than the standard 23: relative to standard 23
EGFR = EGFR (Homo sapiens, UniProt P00533); details: for EGFR inhibition, fold less potent than the standard 20: relative to standard 20 (PD153035)
PDGFR-β = PDGFR-β (Homo sapiens, UniProt P09619); details: for PDGFRβ inhibition, fold less active than the standard 22: relative to standard 22 (AG1295)
PDGFR-β, sequence (P09619 33-1106): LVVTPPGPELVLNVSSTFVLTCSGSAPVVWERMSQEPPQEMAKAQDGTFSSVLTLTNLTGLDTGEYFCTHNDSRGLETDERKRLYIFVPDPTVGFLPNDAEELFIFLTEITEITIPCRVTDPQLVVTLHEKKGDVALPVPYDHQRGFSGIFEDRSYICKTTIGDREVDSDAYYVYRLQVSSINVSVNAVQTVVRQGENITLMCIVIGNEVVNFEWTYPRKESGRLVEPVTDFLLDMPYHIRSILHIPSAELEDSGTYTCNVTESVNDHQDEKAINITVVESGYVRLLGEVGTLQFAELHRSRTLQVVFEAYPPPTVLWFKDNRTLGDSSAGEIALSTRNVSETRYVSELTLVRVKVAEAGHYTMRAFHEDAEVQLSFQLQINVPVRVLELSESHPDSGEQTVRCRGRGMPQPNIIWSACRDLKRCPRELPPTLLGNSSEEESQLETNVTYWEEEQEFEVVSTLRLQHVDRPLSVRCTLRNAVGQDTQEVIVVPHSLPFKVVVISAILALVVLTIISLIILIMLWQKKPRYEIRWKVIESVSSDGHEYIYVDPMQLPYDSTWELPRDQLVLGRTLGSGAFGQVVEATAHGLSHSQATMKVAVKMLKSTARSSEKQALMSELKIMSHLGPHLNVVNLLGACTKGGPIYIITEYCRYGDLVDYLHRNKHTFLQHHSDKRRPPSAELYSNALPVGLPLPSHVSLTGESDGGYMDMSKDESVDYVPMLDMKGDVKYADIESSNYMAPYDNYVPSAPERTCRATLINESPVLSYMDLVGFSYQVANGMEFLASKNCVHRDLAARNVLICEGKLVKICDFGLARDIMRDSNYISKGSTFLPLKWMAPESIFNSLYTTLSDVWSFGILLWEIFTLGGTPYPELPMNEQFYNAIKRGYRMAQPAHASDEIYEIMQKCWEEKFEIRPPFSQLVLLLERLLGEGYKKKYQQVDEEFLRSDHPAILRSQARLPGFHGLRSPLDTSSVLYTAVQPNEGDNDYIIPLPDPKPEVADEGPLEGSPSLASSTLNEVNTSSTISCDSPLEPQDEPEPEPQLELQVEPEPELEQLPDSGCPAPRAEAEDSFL

VEGFR-1, sequence (P17948 27-1338): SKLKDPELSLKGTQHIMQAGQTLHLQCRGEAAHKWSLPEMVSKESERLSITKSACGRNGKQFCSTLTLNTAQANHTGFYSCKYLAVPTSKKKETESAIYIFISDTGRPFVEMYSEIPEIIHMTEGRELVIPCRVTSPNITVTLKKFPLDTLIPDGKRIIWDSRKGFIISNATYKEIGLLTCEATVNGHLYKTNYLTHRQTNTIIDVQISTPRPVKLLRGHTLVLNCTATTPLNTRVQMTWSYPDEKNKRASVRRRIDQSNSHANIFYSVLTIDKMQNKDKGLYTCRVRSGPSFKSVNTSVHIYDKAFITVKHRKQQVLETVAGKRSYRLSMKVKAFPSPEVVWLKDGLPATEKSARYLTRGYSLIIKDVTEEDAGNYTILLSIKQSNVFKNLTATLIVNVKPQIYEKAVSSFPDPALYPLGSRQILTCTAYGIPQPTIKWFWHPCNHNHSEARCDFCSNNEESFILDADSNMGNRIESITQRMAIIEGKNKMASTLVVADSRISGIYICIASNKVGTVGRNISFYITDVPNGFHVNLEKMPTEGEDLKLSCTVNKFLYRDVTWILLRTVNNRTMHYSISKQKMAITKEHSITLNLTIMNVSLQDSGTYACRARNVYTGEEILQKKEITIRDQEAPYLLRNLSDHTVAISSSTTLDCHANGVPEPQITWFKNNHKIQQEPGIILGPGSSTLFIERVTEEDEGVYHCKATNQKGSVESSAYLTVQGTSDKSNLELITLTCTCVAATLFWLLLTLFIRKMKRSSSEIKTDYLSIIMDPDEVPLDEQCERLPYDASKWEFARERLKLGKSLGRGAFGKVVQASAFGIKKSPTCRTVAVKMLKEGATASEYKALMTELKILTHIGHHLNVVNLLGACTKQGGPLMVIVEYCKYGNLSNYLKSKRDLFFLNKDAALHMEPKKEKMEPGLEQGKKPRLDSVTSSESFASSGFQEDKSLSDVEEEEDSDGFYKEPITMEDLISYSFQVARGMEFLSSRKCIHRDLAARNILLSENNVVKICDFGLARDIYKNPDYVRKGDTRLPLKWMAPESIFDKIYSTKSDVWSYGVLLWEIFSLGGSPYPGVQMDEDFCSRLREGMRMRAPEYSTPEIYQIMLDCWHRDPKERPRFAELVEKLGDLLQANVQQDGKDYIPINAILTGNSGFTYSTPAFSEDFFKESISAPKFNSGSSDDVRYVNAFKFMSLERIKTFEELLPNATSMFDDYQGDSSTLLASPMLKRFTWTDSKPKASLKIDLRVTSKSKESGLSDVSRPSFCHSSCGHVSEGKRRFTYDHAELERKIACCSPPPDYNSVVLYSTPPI
EGFR, sequence (P00533 25-1210): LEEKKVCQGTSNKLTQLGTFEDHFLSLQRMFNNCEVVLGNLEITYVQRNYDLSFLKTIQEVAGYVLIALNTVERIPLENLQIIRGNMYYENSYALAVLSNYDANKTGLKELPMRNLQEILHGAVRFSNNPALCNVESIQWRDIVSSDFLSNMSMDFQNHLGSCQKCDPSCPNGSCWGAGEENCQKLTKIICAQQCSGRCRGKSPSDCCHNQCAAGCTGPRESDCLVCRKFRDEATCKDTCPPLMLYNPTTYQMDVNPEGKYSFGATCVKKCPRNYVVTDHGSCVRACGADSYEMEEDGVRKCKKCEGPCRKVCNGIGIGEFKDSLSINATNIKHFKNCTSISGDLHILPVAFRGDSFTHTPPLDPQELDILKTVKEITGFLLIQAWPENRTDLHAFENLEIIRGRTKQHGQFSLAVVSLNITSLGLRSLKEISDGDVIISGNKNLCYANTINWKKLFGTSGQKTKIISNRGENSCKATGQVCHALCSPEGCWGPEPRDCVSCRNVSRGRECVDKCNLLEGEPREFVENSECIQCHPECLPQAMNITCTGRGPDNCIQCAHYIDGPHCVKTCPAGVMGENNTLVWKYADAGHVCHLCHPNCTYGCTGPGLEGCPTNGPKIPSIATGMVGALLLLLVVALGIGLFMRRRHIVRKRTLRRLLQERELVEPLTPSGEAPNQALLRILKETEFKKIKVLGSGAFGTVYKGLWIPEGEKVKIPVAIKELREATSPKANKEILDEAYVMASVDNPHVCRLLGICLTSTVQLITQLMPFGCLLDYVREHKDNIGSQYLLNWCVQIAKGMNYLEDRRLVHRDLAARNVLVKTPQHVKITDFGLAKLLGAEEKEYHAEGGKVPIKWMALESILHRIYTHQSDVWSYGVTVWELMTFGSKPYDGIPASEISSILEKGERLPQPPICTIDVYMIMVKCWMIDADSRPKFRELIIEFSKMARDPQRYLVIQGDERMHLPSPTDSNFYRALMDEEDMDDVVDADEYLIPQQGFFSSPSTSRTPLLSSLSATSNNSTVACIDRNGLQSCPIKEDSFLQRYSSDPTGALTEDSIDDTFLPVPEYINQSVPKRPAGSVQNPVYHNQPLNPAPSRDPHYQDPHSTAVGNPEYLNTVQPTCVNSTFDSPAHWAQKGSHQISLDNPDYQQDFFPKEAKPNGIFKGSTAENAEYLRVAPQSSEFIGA
VEGFR-2, sequence (P35968 20-1356): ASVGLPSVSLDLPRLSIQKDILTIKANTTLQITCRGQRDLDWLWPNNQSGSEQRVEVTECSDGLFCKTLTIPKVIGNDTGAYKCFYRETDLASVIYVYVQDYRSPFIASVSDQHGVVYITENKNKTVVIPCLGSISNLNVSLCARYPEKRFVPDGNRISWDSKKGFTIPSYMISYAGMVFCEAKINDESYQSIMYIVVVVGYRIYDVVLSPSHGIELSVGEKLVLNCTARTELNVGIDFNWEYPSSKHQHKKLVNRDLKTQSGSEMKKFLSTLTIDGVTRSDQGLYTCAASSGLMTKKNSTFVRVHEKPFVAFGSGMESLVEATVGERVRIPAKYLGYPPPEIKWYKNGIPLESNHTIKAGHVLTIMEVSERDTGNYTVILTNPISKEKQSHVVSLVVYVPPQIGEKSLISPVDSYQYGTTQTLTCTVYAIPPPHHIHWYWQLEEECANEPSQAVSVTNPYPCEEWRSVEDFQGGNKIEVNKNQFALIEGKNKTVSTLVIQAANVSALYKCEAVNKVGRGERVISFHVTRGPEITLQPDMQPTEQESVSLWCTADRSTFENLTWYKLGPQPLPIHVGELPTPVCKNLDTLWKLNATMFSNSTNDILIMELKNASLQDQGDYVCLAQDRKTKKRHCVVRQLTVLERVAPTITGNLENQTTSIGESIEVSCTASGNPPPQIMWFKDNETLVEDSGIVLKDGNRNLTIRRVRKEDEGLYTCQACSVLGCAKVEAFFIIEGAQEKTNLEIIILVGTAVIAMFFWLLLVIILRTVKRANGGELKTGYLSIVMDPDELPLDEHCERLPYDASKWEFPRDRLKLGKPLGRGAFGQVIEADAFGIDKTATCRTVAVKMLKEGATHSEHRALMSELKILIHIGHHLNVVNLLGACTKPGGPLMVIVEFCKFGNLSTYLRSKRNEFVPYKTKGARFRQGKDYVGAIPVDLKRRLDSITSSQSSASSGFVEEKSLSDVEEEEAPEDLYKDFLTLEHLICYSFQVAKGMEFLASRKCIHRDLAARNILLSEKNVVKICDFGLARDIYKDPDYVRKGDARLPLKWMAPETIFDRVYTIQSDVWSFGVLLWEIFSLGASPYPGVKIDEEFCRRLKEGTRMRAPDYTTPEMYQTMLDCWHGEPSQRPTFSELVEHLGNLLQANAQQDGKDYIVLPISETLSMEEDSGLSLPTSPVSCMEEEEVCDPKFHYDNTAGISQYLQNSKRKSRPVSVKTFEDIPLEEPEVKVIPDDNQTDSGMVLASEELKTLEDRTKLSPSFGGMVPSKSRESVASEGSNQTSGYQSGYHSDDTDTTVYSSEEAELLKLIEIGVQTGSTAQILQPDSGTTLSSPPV

EGFR inhibition, result in words (EGFR) | Structure (SMILES) | VEGFR-1 inhibition, fold less active than the standard 21 (VEGFR-1) | VEGFR-2 inhibition, fold less active than the standard 23 (VEGFR-2) [fold] | also measured
– | Cc1[nH]c(/C=C2\C(=O)Nc3ccccc32)c(C)c1CCC(=O)O [Compound 8, TSU-68, reference compound] | – | – | toxicity in six week toxicity determination study [1]: no overt toxicity; primary tumor growth rate compared to the control [2]: significant decreases; primary tumor vascularity compared to control animals [2]: significant decrease
– | Nc1nc(Nc2cccc(Br)c2)c2ccn(Cc3ccccc3)c2n1 [Compound 9a, 7-benzyl-N^4-(3-bromophenyl)-7H-pyrrolo[2,3-d]pyrimidine-2,4-diamine] | 5.6 fold | 2 | EGFR inhibition, fold less potent than the standard 20 (EGFR): about 800 fold
– | Nc1nc(Nc2cccc(Br)c2)c2ccn(Cc3ccccc3Cl)c2n1 [Compound 11a, N^4-(3-bromophenyl)-7-(2-chlorobenzyl)-7H-pyrrolo[2,3-d]pyrimidine-2,4-diamine] | 7 fold | 1.6 | toxicity in six week toxicity determination study [1]: no overt toxicity; PDGFRβ inhibition, result in words (PDGFR-β): single digit micromolar concentrations; PDGFRβ inhibition, fold more active than parent regioisomer 11 (PDGFR-β; relative to 6-substituted regioisomer 11): > 33 fold; numbers of COLO-205 metastases to the liver [2]: significantly reduced numbers; primary tumor growth rate compared to the control [2]: significant decreases; primary tumor vascularity compared to control animals [2]: significant decrease
2-digit micromolar inhibition | COc1ccc(OC)c(Cn2ccc3c(Nc4cccc(Br)c4)nc(N)nc32)c1 [Compound 13a, N^4-(3-bromophenyl)-7-(2,5-dimethoxybenzyl)-7H-pyrrolo[2,3-d]pyrimidine-2,4-diamine] | – | – | VEGFR-2 inhibition, result in words (VEGFR-2): inactive even at 200 μM; EGFR inhibition, fold less potent than the standard 20 (EGFR): 346 fold
abolished | Nc1nc(Nc2cccc(Br)c2)c2ccn(Cc3ccc4ccccc4c3)c2n1 [Compound 17a, N^4-(3-bromophenyl)-7-(2-naphthylmethyl)-7H-pyrrolo[2,3-d]pyrimidine-2,4-diamine] | 2.8 fold | 2 | PDGFRβ inhibition, fold less active than the standard 22 (PDGFR-β): 34 fold
abolished | Nc1nc(Nc2cccc(Br)c2)c2ccn(Cc3ccc(-c4ccccc4)cc3)c2n1 [Compound 18a, 7-Biphenyl-4-ylmethyl-N^4-(3-bromo-phenyl)-7H-pyrrolo[2,3-d]pyrimidine-2,4-diamine] | – | – | VEGFR-1 inhibition, result in words (VEGFR-1): inactive at a concentration of 200 μM
inactivity | COc1cc(Cn2ccc3c(Nc4cccc(Br)c4)nc(N)nc32)cc(OC)c1OC [Compound 19a, N^4-(3-Bromo-phenyl)-7-(3,4,5-trimethoxy-benzyl)-7H-pyrrolo[2,3-d]pyrimidine-2,4-diamine] | about 8.8 fold | 2 | PDGFRβ inhibition, result in words (PDGFR-β): single digit micromolar concentrations

Structure (SMILES) | EGFR inhibition, result in words (EGFR) | VEGFR-1 inhibition, fold less active than the standard 21 (VEGFR-1) | VEGFR-2 inhibition, fold less active than the standard 23 (VEGFR-2) [fold] | also measured
Nc1nc(Nc2cccc(Br)c2)c2ccn(Cc3ccc(Cl)cc3Cl)c2n1 [Compound 14a, N^4-(3-bromophenyl)-7-(2,4-dichlorobenzyl)-7H-pyrrolo[2,3-d]pyrimidine-2,4-diamine] | inactivity | – | – | VEGFR-2 inhibition, result in words (VEGFR-2): inactive
Nc1nc(Nc2cccc(Br)c2)c2ccn(Cc3ccc(Cl)c(Cl)c3)c2n1 [Compound 15a, N^4-(3-bromophenyl)-7-(3,4-dichlorobenzyl)-7H-pyrrolo[2,3-d]pyrimidine-2,4-diamine] | inactivity | 7 fold | 6 | –
Nc1nc(Nc2cccc(Br)c2)c2ccn(Cc3cccc4ccccc34)c2n1 [Compound 16a, N^4-(3-bromophenyl)-7-(1-naphthylmethyl)-7H-pyrrolo[2,3-d]pyrimidine-2,4-diamine] | abolished | 8.4 fold | 1.4 | VEGFR-2 inhibition, fold less active than parent regioisomer 16 (VEGFR-2; 16a versus 16): 3 fold; PDGFRβ inhibition, fold less active than the standard 22 (PDGFR-β): 20 fold
